Test results: ChEMBL document CHEMBL3627664, “Towards the evaluation in an animal disease model: Fluorinated 17β-HSD1 inhibitors showing strong activity towards both the human and the rat enzyme” (Eur J Med Chem, 2015)
pIC50: −log10 of the molar value.

Target: T1, 17-beta-hydroxysteroid dehydrogenase type 1 (Homo sapiens, UniProt P14061)
T1 sequence (P14061 whole entry): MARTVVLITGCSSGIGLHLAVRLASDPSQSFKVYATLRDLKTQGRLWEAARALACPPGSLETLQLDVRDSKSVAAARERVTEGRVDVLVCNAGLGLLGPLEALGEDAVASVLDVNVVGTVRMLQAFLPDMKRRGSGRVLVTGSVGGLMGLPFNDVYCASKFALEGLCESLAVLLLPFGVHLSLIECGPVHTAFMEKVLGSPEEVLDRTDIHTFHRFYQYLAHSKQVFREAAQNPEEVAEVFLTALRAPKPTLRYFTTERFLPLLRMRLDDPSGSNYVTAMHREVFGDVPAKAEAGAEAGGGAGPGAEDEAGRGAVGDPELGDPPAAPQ

Point of comparison: `Cc1ccc(S(=O)(=O)Nc2cccc(-c3ccc(C(=O)c4cccc(O)c4)s3)c2)cc1`, pIC50 7.92. Against it:
- N#Cc1cccc(S(=O)(=O)Nc2cccc(-c3c(O)ccc4cc(-c5cccc(O)c5)ccc34)c2)c1 — 0.24 log units lower, 7.68
- Cc1ccc(C(=O)c2ccc(-c3cccc(O)c3)s2)cc1O — 0.58 log units lower, 7.34
- Cc1ccccc1S(=O)(=O)Nc1cccc(-c2ccc(C(=O)c3cccc(O)c3)s2)c1 — within 0.2 log units, 7.77
- N#Cc1ccc(S(=O)(=O)Nc2cccc(-c3ccc(C(=O)c4cccc(O)c4)s3)c2)cc1 — 0.67 log units lower, 7.25
- COc1cccc(S(=O)(=O)Nc2cccc(-c3ccc(C(=O)c4cccc(O)c4)s3)c2)c1 — 0.46 log units lower, 7.46
- O=C(c1ccc(C(F)(F)F)c(O)c1)c1ccc(-c2cccc(O)c2)s1 — 0.50 log units lower, 7.42
- O=C(c1cccc(O)c1)c1ccc(-c2cccc(O)c2)s1 — 0.76 log units lower, 7.16
- O=C(c1ccc(F)c(O)c1)c1cc2cc(O)ccc2s1 — 0.87 log units lower, 7.05
- O=C(c1cccc(O)c1)c1ccc(-c2ccc(NS(=O)(=O)c3ccc(Br)cc3OC(F)(F)F)cc2)s1 — 1.15 log units lower, 6.77
- O=C(c1cccc(O)c1)c1cc2ccc(O)cc2s1 — the same, 7.92
- O=C(Nc1cccc(-c2ccc(C(=O)c3cccc(O)c3)s2)c1)c1cccc(O)c1 — 0.44 log units lower, 7.48
- N#Cc1cccc(S(=O)(=O)Nc2cccc(-c3ccc(C(=O)c4cccc(O)c4)s3)c2)c1 — 0.28 log units lower, 7.64
